Reference: patent US10710978B2, “STK4 inhibitors for treatment of hematologic malignancies” (Dana-Farber Cancer Institute, Inc., priority 2015, dated 2020)
Like-named read-outs stand apart in the source and are kept apart here.

How the values were obtained:
Experiment in all cases: KiNativ assay
Format in all cases: binding
ABL, ARG = conditions: H929 live cell; for % inhibition: 10 μM, range class
Description: (§1) Biochemical IC50s of the compounds of the present disclosure against various kinases were measured in a KiNativ assay. Compounds were screened in duplicate at 10 μM in H929 live cell. IC50 was measured via Mass spectroscopy (MS).

PIK3C3 = PIK3C3 (Homo sapiens (Human), UniProt Q8NEB9); conditions: H929 live cell
Description: as §1

LKB1 = LKB1 (Homo sapiens (Human), UniProt Q15831); conditions: H929 live cell
Description: as §1

IKKb = IKKb (Homo sapiens (Human), UniProt O14920); conditions: H929 live cell
Description: as §1

RSK1 domain2 = RSK1 domain2 (Homo sapiens (Human), UniProt Q15418); conditions: H929 live cell
Description: as §1

ILK = ILK (Homo sapiens (Human), UniProt Q13418); conditions: H929 live cell
Description: as §1

SLK = SLK (Homo sapiens (Human), UniProt Q9H2G2); conditions: H929 live cell
Description: as §1

MST1, MST2 = conditions: H929 live cell; for % inhibition: 10 μM, range class
Description: as §1

PRP4 = PRP4 (Homo sapiens (Human), UniProt Q13523); conditions: H929 live cell
Description: as §1

MAST3 = MAST3 (Homo sapiens (Human), UniProt O60307); conditions: H929 live cell
Description: as §1

p70S6K = p70S6K (Homo sapiens (Human), UniProt P23443); conditions: H929 live cell
Description: as §1

NuaK1 = NuaK1 (Homo sapiens (Human), UniProt O60285); conditions: H929 live cell
Description: as §1

Wnk1, Wnk2, Wnk3 = conditions: H929 live cell; for % inhibition: 10 μM, range class
Description: as §1

AurB = AurB (Homo sapiens (Human), UniProt Q96GD4); conditions: H929 live cell
Description: as §1

RSK2 domain1 = RSK2 domain1 (Homo sapiens (Human), UniProt P51812); conditions: H929 live cell
Description: as §1

EphB2 = EphB2 (Homo sapiens (Human), UniProt P29323); conditions: H929 live cell
Description: as §1

TAO2 = TAO2 (Homo sapiens (Human), UniProt Q9UL54); conditions: H929 live cell
Description: as §1

[1] = system: RSK1 domain1, RSK2 domain1, RSK3 domain1; conditions: H929 live cell; for % inhibition: 10 μM, range class
Description: as §1

MLKL = MLKL (Homo sapiens (Human), UniProt Q8NB16); conditions: H929 live cell
Description: as §1

CaMK1d = CaMK1d (Homo sapiens (Human), UniProt Q8IU85); conditions: H929 live cell
Description: as §1

GCK = GCK (Homo sapiens (Human), UniProt Q12851); conditions: H929 live cell
Description: as §1

IRE1 = IRE1 (Homo sapiens (Human), UniProt O75460); conditions: H929 live cell
Description: as §1

JAK1 domain2 = JAK1 domain2 (Homo sapiens (Human), UniProt P23458); conditions: H929 live cell
Description: as §1

MAP2K7 = MAP2K7 (Homo sapiens (Human), UniProt O14733); conditions: H929 live cell
Description: as §1

CDK7 = CDK7 (Homo sapiens (Human), UniProt P50613); conditions: H929 live cell
Description: as §1

MSK2 domain1 = MSK2 domain1 (Homo sapiens (Human), UniProt O75676); conditions: H929 live cell
Description: as §1

PKCz = PKCz (Homo sapiens (Human), UniProt Q05513); conditions: H929 live cell
Description: as §1

MST1 = MST1 (Homo sapiens (Human), UniProt Q13043); conditions: H929 live cell
Description: as §1

p70S6Kb = p70S6Kb (Homo sapiens (Human), UniProt Q9UBS0); conditions: H929 live cell
Description: as §1

PRPK = PRPK (Homo sapiens (Human), UniProt Q96S44); conditions: H929 live cell
Description: as §1

NEK9 = NEK9 (Homo sapiens (Human), UniProt Q8TD19); conditions: H929 live cell
Description: as §1

MST3 = MST3 (Homo sapiens (Human), UniProt Q9Y6E0); conditions: H929 live cell
Description: as §1

TAO1, TAO3 = conditions: H929 live cell; for % inhibition: 10 μM, range class
Description: as §1

[2] = range class, read-out: % inhibition

PKCz, sequence (Q05513 whole entry): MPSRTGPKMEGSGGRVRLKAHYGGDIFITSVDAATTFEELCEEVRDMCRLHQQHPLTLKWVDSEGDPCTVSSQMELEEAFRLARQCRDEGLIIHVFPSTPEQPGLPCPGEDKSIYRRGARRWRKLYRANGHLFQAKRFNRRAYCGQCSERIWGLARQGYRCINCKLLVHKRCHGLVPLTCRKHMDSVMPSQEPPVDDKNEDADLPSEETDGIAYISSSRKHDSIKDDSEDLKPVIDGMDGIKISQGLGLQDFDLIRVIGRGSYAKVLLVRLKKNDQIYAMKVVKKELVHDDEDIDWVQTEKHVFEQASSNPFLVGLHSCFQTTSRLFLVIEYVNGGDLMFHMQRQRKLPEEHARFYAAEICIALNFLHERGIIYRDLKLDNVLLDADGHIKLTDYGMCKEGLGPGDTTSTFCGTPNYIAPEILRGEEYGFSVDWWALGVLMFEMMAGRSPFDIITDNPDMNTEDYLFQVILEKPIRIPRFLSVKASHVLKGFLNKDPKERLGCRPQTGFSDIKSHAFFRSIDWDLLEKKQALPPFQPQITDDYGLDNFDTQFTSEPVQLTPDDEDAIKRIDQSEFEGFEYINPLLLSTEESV
CaMK1d, sequence (Q8IU85 whole entry): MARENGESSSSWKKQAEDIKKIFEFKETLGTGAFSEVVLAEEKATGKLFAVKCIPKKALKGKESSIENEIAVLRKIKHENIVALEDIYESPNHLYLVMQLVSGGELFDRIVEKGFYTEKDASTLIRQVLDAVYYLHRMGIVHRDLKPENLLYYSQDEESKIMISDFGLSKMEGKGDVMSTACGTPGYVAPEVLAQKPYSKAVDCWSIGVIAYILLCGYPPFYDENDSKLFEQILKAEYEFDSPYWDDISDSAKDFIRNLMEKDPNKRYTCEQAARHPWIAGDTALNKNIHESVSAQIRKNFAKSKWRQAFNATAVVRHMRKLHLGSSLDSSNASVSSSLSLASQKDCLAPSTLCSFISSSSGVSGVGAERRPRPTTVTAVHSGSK
EphB2, sequence (P29323 19-1055): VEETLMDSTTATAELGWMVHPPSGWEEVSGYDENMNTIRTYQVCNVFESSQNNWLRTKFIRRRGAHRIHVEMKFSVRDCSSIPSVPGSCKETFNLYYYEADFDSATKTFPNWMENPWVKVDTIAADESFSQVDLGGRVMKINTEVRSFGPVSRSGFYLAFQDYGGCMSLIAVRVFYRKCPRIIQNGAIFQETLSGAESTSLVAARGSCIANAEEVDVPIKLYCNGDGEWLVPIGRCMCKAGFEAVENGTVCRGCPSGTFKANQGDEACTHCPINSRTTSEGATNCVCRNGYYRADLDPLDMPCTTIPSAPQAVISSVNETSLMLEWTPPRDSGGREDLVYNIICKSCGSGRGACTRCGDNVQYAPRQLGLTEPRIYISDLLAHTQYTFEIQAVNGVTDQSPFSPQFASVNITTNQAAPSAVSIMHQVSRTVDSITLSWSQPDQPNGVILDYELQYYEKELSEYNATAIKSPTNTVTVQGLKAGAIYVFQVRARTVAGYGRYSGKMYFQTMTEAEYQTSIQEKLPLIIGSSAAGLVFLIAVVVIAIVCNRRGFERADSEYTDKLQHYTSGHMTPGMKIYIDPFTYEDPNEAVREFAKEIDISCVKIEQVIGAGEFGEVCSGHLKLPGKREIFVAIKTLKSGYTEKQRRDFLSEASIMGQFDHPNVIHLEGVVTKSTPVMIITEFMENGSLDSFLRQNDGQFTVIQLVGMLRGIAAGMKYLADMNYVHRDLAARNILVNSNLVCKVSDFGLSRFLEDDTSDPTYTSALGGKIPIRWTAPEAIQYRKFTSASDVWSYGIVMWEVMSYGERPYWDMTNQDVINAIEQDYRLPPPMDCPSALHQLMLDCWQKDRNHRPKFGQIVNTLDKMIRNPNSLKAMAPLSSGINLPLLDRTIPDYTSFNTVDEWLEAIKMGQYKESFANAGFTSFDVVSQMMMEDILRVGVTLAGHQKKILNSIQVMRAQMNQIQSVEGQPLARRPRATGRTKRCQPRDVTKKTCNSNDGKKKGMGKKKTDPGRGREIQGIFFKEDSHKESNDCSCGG
MLKL, sequence (Q8NB16 whole entry): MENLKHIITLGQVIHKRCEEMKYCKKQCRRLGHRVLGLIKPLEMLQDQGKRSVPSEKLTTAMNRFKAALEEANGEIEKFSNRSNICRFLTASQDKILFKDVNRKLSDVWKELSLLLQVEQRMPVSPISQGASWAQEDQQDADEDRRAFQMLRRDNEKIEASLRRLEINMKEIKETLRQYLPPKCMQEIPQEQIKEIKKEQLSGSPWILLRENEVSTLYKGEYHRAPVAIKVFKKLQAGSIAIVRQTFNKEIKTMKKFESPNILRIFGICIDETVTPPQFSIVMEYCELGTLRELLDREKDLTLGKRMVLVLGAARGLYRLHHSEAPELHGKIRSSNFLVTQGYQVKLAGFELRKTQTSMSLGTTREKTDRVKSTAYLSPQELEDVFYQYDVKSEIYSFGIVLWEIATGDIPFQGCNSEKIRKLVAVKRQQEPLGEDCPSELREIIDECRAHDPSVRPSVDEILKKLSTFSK
IKKb, sequence (O14920 whole entry): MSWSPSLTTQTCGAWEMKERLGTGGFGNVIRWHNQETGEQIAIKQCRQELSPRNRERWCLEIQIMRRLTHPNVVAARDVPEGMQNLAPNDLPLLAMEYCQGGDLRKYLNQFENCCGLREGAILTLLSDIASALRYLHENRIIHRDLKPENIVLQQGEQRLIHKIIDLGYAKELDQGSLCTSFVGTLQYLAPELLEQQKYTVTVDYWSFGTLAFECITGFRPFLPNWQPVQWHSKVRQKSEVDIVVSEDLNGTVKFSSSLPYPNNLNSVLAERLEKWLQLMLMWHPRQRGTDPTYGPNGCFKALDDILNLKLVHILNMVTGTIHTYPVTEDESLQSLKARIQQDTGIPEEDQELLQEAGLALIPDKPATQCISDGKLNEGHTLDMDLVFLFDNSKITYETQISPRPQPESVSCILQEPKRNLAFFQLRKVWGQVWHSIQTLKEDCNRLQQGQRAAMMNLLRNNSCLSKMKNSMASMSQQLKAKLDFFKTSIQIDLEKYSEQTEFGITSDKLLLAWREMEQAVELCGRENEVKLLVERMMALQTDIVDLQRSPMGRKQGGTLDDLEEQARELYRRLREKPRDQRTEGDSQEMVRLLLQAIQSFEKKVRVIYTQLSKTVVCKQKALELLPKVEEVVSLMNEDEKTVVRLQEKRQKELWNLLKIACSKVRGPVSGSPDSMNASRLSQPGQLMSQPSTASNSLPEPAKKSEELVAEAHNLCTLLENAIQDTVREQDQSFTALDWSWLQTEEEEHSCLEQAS
AurB, sequence (Q96GD4 whole entry): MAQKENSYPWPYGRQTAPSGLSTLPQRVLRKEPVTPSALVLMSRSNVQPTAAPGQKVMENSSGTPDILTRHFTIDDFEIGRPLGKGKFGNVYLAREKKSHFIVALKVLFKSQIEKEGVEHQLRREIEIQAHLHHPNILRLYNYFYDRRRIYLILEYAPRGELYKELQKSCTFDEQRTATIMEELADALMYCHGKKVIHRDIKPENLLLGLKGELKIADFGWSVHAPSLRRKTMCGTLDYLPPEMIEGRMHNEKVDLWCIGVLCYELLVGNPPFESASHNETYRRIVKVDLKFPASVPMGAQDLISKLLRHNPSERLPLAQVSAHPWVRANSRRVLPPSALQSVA
RSK1 domain2, sequence (Q15418 whole entry, the tested form may be a part): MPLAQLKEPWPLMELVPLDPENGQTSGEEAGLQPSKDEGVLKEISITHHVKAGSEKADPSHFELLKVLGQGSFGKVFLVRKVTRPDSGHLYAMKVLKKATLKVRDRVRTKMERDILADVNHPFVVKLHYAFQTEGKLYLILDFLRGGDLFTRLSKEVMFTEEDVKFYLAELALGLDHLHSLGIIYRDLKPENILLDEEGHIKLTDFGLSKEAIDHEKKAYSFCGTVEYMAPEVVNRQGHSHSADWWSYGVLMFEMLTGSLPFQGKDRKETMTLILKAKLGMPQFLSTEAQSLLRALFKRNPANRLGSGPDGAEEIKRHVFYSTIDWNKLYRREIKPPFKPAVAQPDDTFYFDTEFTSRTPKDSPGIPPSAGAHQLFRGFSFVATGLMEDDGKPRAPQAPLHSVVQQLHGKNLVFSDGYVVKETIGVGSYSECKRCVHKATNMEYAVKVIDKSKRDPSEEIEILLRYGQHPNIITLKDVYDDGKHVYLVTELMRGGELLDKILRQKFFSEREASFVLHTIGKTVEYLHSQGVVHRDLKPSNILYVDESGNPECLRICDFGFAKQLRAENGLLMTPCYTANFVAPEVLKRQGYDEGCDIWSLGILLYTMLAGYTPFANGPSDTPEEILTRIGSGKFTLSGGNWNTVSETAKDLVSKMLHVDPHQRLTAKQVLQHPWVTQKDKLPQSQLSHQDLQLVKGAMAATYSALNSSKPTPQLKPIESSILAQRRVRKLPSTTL
MST3, sequence (Q9Y6E0 whole entry): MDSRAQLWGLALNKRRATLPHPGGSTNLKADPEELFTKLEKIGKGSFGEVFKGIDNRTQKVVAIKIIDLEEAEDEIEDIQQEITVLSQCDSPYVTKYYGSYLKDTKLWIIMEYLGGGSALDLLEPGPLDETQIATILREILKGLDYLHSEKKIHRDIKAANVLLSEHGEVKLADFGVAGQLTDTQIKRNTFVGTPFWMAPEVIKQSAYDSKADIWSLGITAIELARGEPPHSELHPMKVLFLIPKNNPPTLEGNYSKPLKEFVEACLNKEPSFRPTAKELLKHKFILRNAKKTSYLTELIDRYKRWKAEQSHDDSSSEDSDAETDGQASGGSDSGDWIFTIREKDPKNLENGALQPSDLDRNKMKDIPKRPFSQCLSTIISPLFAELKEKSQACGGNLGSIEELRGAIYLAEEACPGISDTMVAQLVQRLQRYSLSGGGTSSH
PRPK, sequence (Q96S44 whole entry): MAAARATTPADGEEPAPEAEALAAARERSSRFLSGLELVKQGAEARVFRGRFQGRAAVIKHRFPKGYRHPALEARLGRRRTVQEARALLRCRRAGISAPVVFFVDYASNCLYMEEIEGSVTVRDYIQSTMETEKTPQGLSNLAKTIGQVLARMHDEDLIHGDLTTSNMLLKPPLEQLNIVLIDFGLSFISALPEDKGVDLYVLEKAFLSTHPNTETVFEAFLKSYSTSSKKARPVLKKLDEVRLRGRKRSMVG

## COc1cc(NS(=O)(=O)C2CC2)ccc1-c1cnc(N)c(-c2ccc3c(c2)CCNC3=O)c1 [Compound I-50, N-(4-(6-amino-5-(1-oxo-1,2,3,4-tetrahydroisoquinolin-6-yl)pyridin-3-yl)-3-methoxyphenyl) cyclopropanesulfonamide]
ABL, ARG
  % inhibition: 0.0%
  inhibition (10 μM): −53.7%
PIK3C3; [2]
  inhibition at 10 µM: 0%
PIK3C3; read-out: inhibition (10 μM)
  inhibition at 10 µM: -32.5%
LKB1; [2]
  inhibition at 10 µM: 0%
LKB1; read-out: inhibition (10 μM)
  inhibition at 10 µM: -1.1%
IKKb; [2]
  inhibition at 10 µM: 0%
IKKb; read-out: inhibition (10 μM)
  inhibition at 10 µM: -26.2%
RSK1 domain2; [2]
  inhibition at 10 µM: 0%
RSK1 domain2; read-out: inhibition (10 μM)
  inhibition at 10 µM: 1%
ILK; [2]
  inhibition at 10 µM: 0%
ILK; read-out: inhibition (10 μM)
  inhibition at 10 µM: -18.8%
SLK; [2]
  inhibition at 10 µM: 50 to 75%
SLK; read-out: inhibition (10 μM)
  inhibition at 10 µM: 70.6%
MST1, MST2
  % inhibition: >90%
  inhibition (10 μM): 98.7%
PRP4; [2]
  inhibition at 10 µM: 0%
PRP4; read-out: inhibition (10 μM)
  inhibition at 10 µM: -17.9%
MAST3; [2]
  inhibition at 10 µM: 0%
MAST3; read-out: inhibition (10 μM)
  inhibition at 10 µM: -0.5%
p70S6K; [2]
  inhibition at 10 µM: 0%
p70S6K; read-out: inhibition (10 μM)
  inhibition at 10 µM: 2.4%
NuaK1
  inhibition (10 μM): 61.5%
NuaK1; [2]
  inhibition at 10 µM: 50 to 75%
NuaK1; read-out: inhibition (10 μM)
  inhibition at 10 µM: 67.9%
Wnk1, Wnk2, Wnk3
  % inhibition: 0.0%
  inhibition (10 μM): 15.9%
AurB; [2]
  inhibition at 10 µM: 0%
AurB; read-out: inhibition (10 μM)
  inhibition at 10 µM: 7.7%
RSK2 domain1; [2]
  inhibition at 10 µM: 0%
RSK2 domain1; read-out: inhibition (10 μM)
  inhibition at 10 µM: 21%
EphB2; [2]
  inhibition at 10 µM: 0%
EphB2; read-out: inhibition (10 μM)
  inhibition at 10 µM: 8.2%
TAO2; [2]
  inhibition at 10 µM: 0%
TAO2; read-out: inhibition (10 μM)
  inhibition at 10 µM: 9%
[1]
  % inhibition: 0.0%
  inhibition (10 μM): 15.8%
MLKL; [2]
  inhibition at 10 µM: 0%
MLKL; read-out: inhibition (10 μM)
  inhibition at 10 µM: 8.2%
CaMK1d; [2]
  inhibition at 10 µM: 0%
CaMK1d; read-out: inhibition (10 μM)
  inhibition at 10 µM: 10.6%
GCK; [2]
  inhibition at 10 µM: > 90%
GCK; read-out: inhibition (10 μM)
  inhibition at 10 µM: 95.2%
IRE1; [2]
  inhibition at 10 µM: 0%
IRE1; read-out: inhibition (10 μM)
  inhibition at 10 µM: -8.7%
JAK1 domain2; [2]
  inhibition at 10 µM: 0%
JAK1 domain2; read-out: inhibition (10 μM)
  inhibition at 10 µM: -23.3%
MAP2K7; [2]
  inhibition at 10 µM: 0%
MAP2K7; read-out: inhibition (10 μM)
  inhibition at 10 µM: 16.4%
CDK7; [2]
  inhibition at 10 µM: 0%
CDK7; read-out: inhibition (10 μM)
  inhibition at 10 µM: 19.4%
MSK2 domain1; [2]
  inhibition at 10 µM: 0%
MSK2 domain1; read-out: inhibition (10 μM)
  inhibition at 10 µM: -2.8%
PKCz; [2]
  inhibition at 10 µM: 0%
PKCz; read-out: inhibition (10 μM)
  inhibition at 10 µM: -1.7%
MST1; [2]
  inhibition at 10 µM: > 90%
MST1; read-out: inhibition (10 μM)
  inhibition at 10 µM: 97.5%
p70S6Kb; [2]
  inhibition at 10 µM: 0%
p70S6Kb; read-out: inhibition (10 μM)
  inhibition at 10 µM: 14%
PRPK; [2]
  inhibition at 10 µM: 0%
PRPK; read-out: inhibition (10 μM)
  inhibition at 10 µM: -23.6%
NEK9; [2]
  inhibition at 10 µM: 0%
NEK9; read-out: inhibition (10 μM)
  inhibition at 10 µM: 5.9%
MST3; [2]
  inhibition at 10 µM: 0%
MST3; read-out: inhibition (10 μM)
  inhibition at 10 µM: 20%
TAO1, TAO3
  % inhibition: 0.0%
  inhibition (10 μM): 17.8%

## Nc1ncc(-c2ccc(NS(=O)(=O)C3CC3)cc2F)cc1-c1ccc2c(c1)CCNC2=O [Compound I-51, N-(4-(6-amino-5-(1-oxo-1,2,3,4-tetrahydroisoquinolin-6-yl)pyridin-3-yl)-3-fluorophenyl) cyclopropanesulfonamide]
ABL, ARG
  % inhibition: 0.0%
  inhibition (10 μM): −3.0%
PIK3C3; [2]
  inhibition at 10 µM: 0%
PIK3C3; read-out: inhibition (10 μM)
  inhibition at 10 µM: -13.2%
LKB1; [2]
  inhibition at 10 µM: 0%
LKB1; read-out: inhibition (10 μM)
  inhibition at 10 µM: 5.1%
IKKb; [2]
  inhibition at 10 µM: 0%
IKKb; read-out: inhibition (10 μM)
  inhibition at 10 µM: -19.5%
RSK1 domain2; [2]
  inhibition at 10 µM: 0%
RSK1 domain2; read-out: inhibition (10 μM)
  inhibition at 10 µM: 11%
ILK; [2]
  inhibition at 10 µM: 0%
ILK; read-out: inhibition (10 μM)
  inhibition at 10 µM: -31.3%
SLK; [2]
  inhibition at 10 µM: 75 to 90%
SLK; read-out: inhibition (10 μM)
  inhibition at 10 µM: 85.6%
MST1, MST2
  % inhibition: >90%
  inhibition (10 μM): 98.4%
PRP4; [2]
  inhibition at 10 µM: 0%
PRP4; read-out: inhibition (10 μM)
  inhibition at 10 µM: 10.2%
MAST3; [2]
  inhibition at 10 µM: 0%
MAST3; read-out: inhibition (10 μM)
  inhibition at 10 µM: 7%
p70S6K; [2]
  inhibition at 10 µM: 0%
p70S6K; read-out: inhibition (10 μM)
  inhibition at 10 µM: -21.6%
NuaK1
  inhibition (10 μM): 68.8%
NuaK1; [2]
  inhibition at 10 µM: 50 to 75%
NuaK1; read-out: inhibition (10 μM)
  inhibition at 10 µM: 71.9%
Wnk1, Wnk2, Wnk3
  % inhibition: 0.0%
  inhibition (10 μM): 0.2%
AurB; [2]
  inhibition at 10 µM: 0%
AurB; read-out: inhibition (10 μM)
  inhibition at 10 µM: 31.8%
RSK2 domain1; [2]
  inhibition at 10 µM: 35 to 40%
RSK2 domain1; read-out: inhibition (10 μM)
  inhibition at 10 µM: 49.9%
EphB2; [2]
  inhibition at 10 µM: 0%
EphB2; read-out: inhibition (10 μM)
  inhibition at 10 µM: 8.8%
TAO2; [2]
  inhibition at 10 µM: 35 to 40%
TAO2; read-out: inhibition (10 μM)
  inhibition at 10 µM: 40.9%
[1]
  % inhibition: 0.0%
  inhibition (10 μM): 25.8%
MLKL; [2]
  inhibition at 10 µM: 50 to 75%
MLKL; read-out: inhibition (10 μM)
  inhibition at 10 µM: 51.4%
CaMK1d; [2]
  inhibition at 10 µM: 0%
CaMK1d; read-out: inhibition (10 μM)
  inhibition at 10 µM: -1.7%
GCK; [2]
  inhibition at 10 µM: > 90%
GCK; read-out: inhibition (10 μM)
  inhibition at 10 µM: 93.9%
IRE1; [2]
  inhibition at 10 µM: 0%
IRE1; read-out: inhibition (10 μM)
  inhibition at 10 µM: -43.1%
JAK1 domain2; [2]
  inhibition at 10 µM: 0%
JAK1 domain2; read-out: inhibition (10 μM)
  inhibition at 10 µM: -6.4%
MAP2K7; [2]
  inhibition at 10 µM: 0%
MAP2K7; read-out: inhibition (10 μM)
  inhibition at 10 µM: 12.2%
CDK7; [2]
  inhibition at 10 µM: 0%
CDK7; read-out: inhibition (10 μM)
  inhibition at 10 µM: 17.4%
MSK2 domain1; [2]
  inhibition at 10 µM: 0%
MSK2 domain1; read-out: inhibition (10 μM)
  inhibition at 10 µM: -8%
PKCz; [2]
  inhibition at 10 µM: 0%
PKCz; read-out: inhibition (10 μM)
  inhibition at 10 µM: 2.1%
MST1; [2]
  inhibition at 10 µM: > 90%
MST1; read-out: inhibition (10 μM)
  inhibition at 10 µM: 96.3%
p70S6Kb; [2]
  inhibition at 10 µM: 0%
p70S6Kb; read-out: inhibition (10 μM)
  inhibition at 10 µM: 5.5%
PRPK; [2]
  inhibition at 10 µM: 0%
PRPK; read-out: inhibition (10 μM)
  inhibition at 10 µM: -47.4%
NEK9; [2]
  inhibition at 10 µM: 0%
NEK9; read-out: inhibition (10 μM)
  inhibition at 10 µM: -20.8%
MST3; [2]
  inhibition at 10 µM: 50 to 75%
MST3; read-out: inhibition (10 μM)
  inhibition at 10 µM: 53.3%
TAO1, TAO3
  % inhibition: 75-90%
  inhibition (10 μM): 80.4%
